# Biological target: T1, acid-sensing ion channel isoform 1a (ASIC1a) (Rattus norvegicus, UniProt P55926)
# T1 construct: gene Asic1
# T1 sequence (P55926 1-526): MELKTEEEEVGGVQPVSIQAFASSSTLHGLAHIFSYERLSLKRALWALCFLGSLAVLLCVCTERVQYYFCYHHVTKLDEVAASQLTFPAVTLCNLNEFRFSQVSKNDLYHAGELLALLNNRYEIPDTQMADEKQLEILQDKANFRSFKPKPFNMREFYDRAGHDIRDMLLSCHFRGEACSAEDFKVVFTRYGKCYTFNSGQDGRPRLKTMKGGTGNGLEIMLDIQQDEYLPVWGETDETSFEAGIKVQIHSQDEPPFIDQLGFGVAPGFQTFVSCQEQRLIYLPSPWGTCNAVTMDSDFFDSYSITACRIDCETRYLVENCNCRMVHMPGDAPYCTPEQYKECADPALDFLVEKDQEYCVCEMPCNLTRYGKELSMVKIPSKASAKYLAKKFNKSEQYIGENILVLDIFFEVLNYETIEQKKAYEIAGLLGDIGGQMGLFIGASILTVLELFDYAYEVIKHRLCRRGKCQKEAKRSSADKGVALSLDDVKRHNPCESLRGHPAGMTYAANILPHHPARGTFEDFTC
# Assay: two-electrode voltage clamp, Xenopus laevis oocytes expressing rat ASIC1a, pH […] stimulus from pH […]
# Type: cell-based
# Conditions: read-out: pH 6.85
smiles,measurement,value
"COc1cc2c(cc1O)C(Cc1ccc(O)c(Oc3ccc(C[C@@H]4NCCc5cc(OC)c(O)cc54)cc3)c1)NCC2 (stereo partly shown) [LIN, lindoldhamine]",IC50,9 ± 0.3 µM

# — publication PMC6783924, “Alkaloid Lindoldhamine Inhibits Acid-Sensing Ion Channel 1a and Reveals Anti-Inflammatory Properties” (Toxins, 2019)
